Settings: for log10 biotransformation half-life (days) / log10 BCF: fish

Compound	melting point [°C]	boiling point [°C]	further results
CCN(CCO)c1ccc(N=Nc2ccc([N+](=O)[O-])cc2)cc1	161	–	log10 vapour pressure (mmHg): -13.4
CCOP(=O)(OCC)OC(=CCl)c1ccc(Cl)cc1Cl	-20	–	log10 Koc (L/kg): 2.47; log10 vapour pressure (mmHg): -5.12
OCCCc1ccccn1	34	260	–
CC(=O)Oc1cccc2c1C(=O)c1c(OC(C)=O)cc(C(=O)O)cc1C2=O	218	–	–
COc1cccc(C(=O)NN(C(=O)c2cc(C)cc(C)c2)C(C)(C)C)c1C	204	–	–
CCN(C(C)C)C(C)C	–	126	–
COc1ncnc(NS(=O)(=O)c2ccc(N)cc2)c1OC	192	–	–
CCCCCCC#N	–	183	–
Clc1ccc(-c2c(Cl)cc(Cl)c(Cl)c2Cl)cc1Cl	107	–	log10 biotransformation half-life (days): 2.57
C[SiH]1O[SiH](C)O[SiH](C)O[SiH](C)O1 (stereo not given)	-65	134	–
CC(=O)C(C)O (stereo not given)	15	143	–
CCCCCCCCCCCC(=O)NCCC[N+](C)(C)CC(=O)[O-]	–	–	ready biodegradability: readily biodegradable
CCN(C)C(=O)COC(=O)c1ccccc1	20	–	–
CCOC(=O)[N-]c1c[n+](N2CCOCC2)no1	140	–	–
CC(C)c1ccc(C(C)C)cc1	-17	210	log10 vapour pressure (mmHg): -0.609; ready biodegradability: not readily biodegradable; log10 BCF: 3.24; log10 biotransformation half-life (days): 0.6
Cc1ccccc1C(=O)O	104	259	log10 vapour pressure (mmHg): -3.18; ready biodegradability: readily biodegradable
CCCCN(CCCC)c1ccccc1	-32.2	275	–
Clc1ccccc1-c1cccc(Cl)c1Cl	–	–	log10 Henry constant (atm·m³/mol): -3.7
O[C@@H]1CCc2ccccc21	54.8	220	–
Clc1cccc(Br)c1Cl	60	245	–
CC1(C)C2CC3OC3(C)C1C2 (stereo not given)	–	185	log10 vapour pressure (mmHg): -0.0872
C=C=CC	-136	10.9	log10 vapour pressure (mmHg): 3.1
CCc1cccc(-c2ccccc2)c1	-27.5	284	–
OCCCCCCCO	22.5	262	–

Compound	melting point [°C]	boiling point [°C]	further results
CCOCCOc1ccccc1	–	230	–
COc1ccccc1CN	–	229	–
Clc1cc2oc3c(Cl)c(Cl)cc(Cl)c3c2c(Cl)c1Cl	–	–	log10 BCF: 3.2
CN(C)c1cccc2c(S(=O)(=O)Cl)cccc12	70	–	–
CCC1CCCCN1C(=O)COC(=O)c1ccccc1 (stereo not given)	54.5	–	–
CN(C)CCCO	–	164	–
c1ccc2c(c1)ccc1c3ccccc3sc21	189	–	log10 vapour pressure (mmHg): -6.94
CNC(=O)ON=C(SC)C(=O)N(C)C	101	–	log10 Koc (L/kg): 1
CCCCCCCCC(=O)N(CCO)CCO	–	–	ready biodegradability: readily biodegradable
CC(C)(Oc1ccc(CCNC(=O)c2ccc(Cl)cc2)cc1)C(=O)O	186	–	–
O=C(O)c1cc(Cl)c(O)c(Cl)c1	265	–	–
c1ccc2nccnc2c1	28	230	–
CNC(=O)Nc1ccccc1	–	–	log10 Koc (L/kg): 1.29
O=C1c2ccccc2C(=O)c2c1cccc2S(=O)(=O)O	–	–	ready biodegradability: not readily biodegradable
CC(C)OC(=O)C(O)(c1ccc(Br)cc1)c1ccc(Br)cc1	77	–	log10 vapour pressure (mmHg): -7.09
COc1ccc(-c2cc(=O)c3c(O)cc(O)cc3o2)cc1O	254	–	–
Oc1c(Cl)cc(Cl)cc1Sc1cc(Cl)cc(Cl)c1O	188	–	–
CCN(CCO)c1ccccc1	37	268	–
CCOc1cc(C(C)(C)C)ccc1C1COC(c2c(F)cccc2F)=N1 (stereo not given)	102	–	log10 vapour pressure (mmHg): -7.79
CCCc1cccc(O)c1	26	228	–
CC(=O)c1ccc(C(C)C)cc1	–	254	–
c1ccc2c(c1)CCCN2	20	251	–
CC[C@H]1CN2CCc3cc(OC)c(OC)cc3[C@@H]2C[C@@H]1C[C@@H]1NCCc2cc(O)c(OC)cc21	116	–	–
C[C@@H]1CC[C@H]2C(C)(C)[C@H]3C[C@@]12CC[C@@]3(C)O	86	–	–

Compound	melting point [°C]	boiling point [°C]	further results
Nc1c(Br)cc2c(c1Br)Cc1ccccc1-2	–	–	ready biodegradability: not readily biodegradable
COP(=O)(OC)O/C(=C\Cl)c1ccc(Cl)cc1Cl	69.5	–	log10 vapour pressure (mmHg): -5.01
CC1(C)C(C=C(Cl)Cl)C1C(=O)OC(C#N)c1ccc(F)c(Oc2ccccc2)c1 (stereo not given)	60	–	log10 Koc (L/kg): 5; log10 vapour pressure (mmHg): -9.82
Nc1cc(Cl)cc(C(=O)O)c1Cl	200	312	log10 Koc (L/kg): 1.48; ready biodegradability: not readily biodegradable
FC(F)(F)C1(F)C(F)(F)C(F)(F)C(F)(C(F)(F)F)C(F)(F)C1(F)F (stereo not given)	–	100	–
CC(C)=CCOc1c2occc2cc2ccc(=O)oc12	102	–	–
O=P([O-])([O-])O[C@@H]1[C@@H](O)[C@H](O)[C@@H](O)[C@H](O)[C@@H]1O	195	–	–
CC(C)CN1CCOCC1	–	181	ready biodegradability: not readily biodegradable; log10 BCF: 0.25
OCCc1ccccc1	-27	218	log10 Henry constant (atm·m³/mol): -6.59; log10 Koc (L/kg): 1.5; log10 vapour pressure (mmHg): -1.06; ready biodegradability: readily biodegradable
Fc1ccc(NC(=S)Nc2cc(Cl)cc(Cl)c2)cc1	164	–	–
CC(C)(C)OC(=O)C(F)(F)F	–	83	–
CC(O)=S	–	93	–
CCN(CC)CCOC(=O)C(O)(c1ccccc1)c1ccccc1	51	–	–
O=C([O-])Cc1ccccc1Nc1c(Cl)cccc1Cl.[Na+]	284	–	–
Cc1cccnn1	184	214	–
COc1ccccc1OC	22.5	206	log10 Koc (L/kg): 2.03; log10 vapour pressure (mmHg): -0.328; ready biodegradability: readily biodegradable
CC(C(O)c1ccc(O)cc1)N1CCC(Cc2ccccc2)CC1 (stereo not given)	114	–	–
Clc1ccc(Cl)nc1	60.5	–	–
CC(c1ccccc1)c1ccc(O)cc1 (stereo not given)	–	–	ready biodegradability: not readily biodegradable
COc1ccc(NC(=O)N(C)C)cc1Cl	126	–	log10 Koc (L/kg): 1.72
Clc1ccc(-c2c(Cl)cc(Cl)cc2Cl)cc1	65	–	–
CCOC(=O)Cc1[nH]nc2ccc(Cl)cc12	77	–	–
O=C(c1ccccc1)c1ccc([N+](=O)[O-])cc1	138	–	–
O=C(O)c1ccc(O)c(O)c1O	221	–	–

Compound	melting point [°C]	boiling point [°C]	further results
O=[N+]([O-])c1ccc(Nc2ccccc2)c([N+](=O)[O-])c1	159	–	log10 vapour pressure (mmHg): -8.52
C=C(C(=O)O)C(F)(F)F	51.5	–	–
Cc1cnc2ccccc2n1	180	244	–
N#Cc1cc(Br)c(O)c(Br)c1	190	–	log10 vapour pressure (mmHg): -7.33; ready biodegradability: readily biodegradable
CCCCCCCCCCCCCCCC[N+](C)(C)CC.[Br-]	182	–	–
CCN(CC)c1nc(Cl)nc(N(CC)CC)n1	27	–	–
C[Si](C)(C)CBr	–	116	–
CC(C)=NOCCOC(=O)[C@@H](C)Oc1ccc(Oc2cnc3cc(Cl)ccc3n2)cc1	66.3	–	log10 vapour pressure (mmHg): -11.5
NS(=O)(=O)c1ccc(SCCCO)c(Cl)c1	127	–	–
Sc1ccccc1S	28.5	238	–
c1ccc(CCc2ccccc2)cc1	52.5	284	log10 vapour pressure (mmHg): -2.14; ready biodegradability: readily biodegradable
CCCCC(CC)COC(C)=O (stereo not given)	-80	199	log10 vapour pressure (mmHg): -0.638
CCCSCCC	-102	143	log10 Henry constant (atm·m³/mol): -2.49; log10 vapour pressure (mmHg): 0.81
C1CCN2C[C@@H]3C[C@@H](CN4CCCC[C@@H]34)[C@H]2C1	30.5	325	–
CCC(C)N (stereo not given)	-104	62.8	log10 vapour pressure (mmHg): 2.25; ready biodegradability: readily biodegradable
O=c1[nH]c(=O)n([C@H]2C[C@H](O)[C@@H](CO)O2)cc1I	263	–	–
Cc1c2ccccc2cc2c1ccc1ccccc12	141	–	log10 biotransformation half-life (days): -0.05
OCCc1ccc(O)cc1	90	–	–
CCCCCCCCCCCCCCCC(=O)OCCOC(=O)CCCCCCCCCCCCCCC	72	–	–
CCOC(=O)C(F)(F)C(F)(F)C(F)(F)F	–	95	–
Nc1cc(-c2ccccc2)ccc1O	200	–	–
Brc1ccc(Br)cc1	87.3	218	log10 Koa: 5.21; log10 vapour pressure (mmHg): -1.24; ready biodegradability: not readily biodegradable; log10 BCF: 2.21; log10 biotransformation half-life (days): 0.31
CCCC(C)(C)C(C)(C)C	-54	160	log10 vapour pressure (mmHg): 0.589
CC(C)COC(=O)c1ccc(N)cc1	64.5	–	–

Compound	melting point [°C]	boiling point [°C]	further results
CCCCC(C)CCCC(C)C (stereo not given)	–	–	log10 biotransformation half-life (days): 0.32
CC(CCO)C(F)(F)F (stereo not given)	–	140	–
COCC(=O)O	7.7	204	log10 vapour pressure (mmHg): -0.839
C[C@]12CCC(=O)C=C1CC[C@@H]1[C@@H]2C(=O)C[C@@]2(C)[C@H]1CC[C@]2(O)C(=O)CO	222	–	–
COC(=O)c1cccc(C)c1	–	221	–
NC(=O)COc1ccccc1	102	–	–
CCNc1nc(NC(C)C)nc(SC)n1	88	345	log10 Koc (L/kg): 2.59; log10 vapour pressure (mmHg): -5.56; ready biodegradability: not readily biodegradable
O=C(O)c1c(F)c(F)c(F)c(F)c1C(=O)O	163	–	–
CCN1CCCC(N)C1 (stereo not given)	–	155	–
NNC=O	55	–	–
C1=CC2CCC1C2	45	96	log10 vapour pressure (mmHg): 1.59
CCOC(=O)[C@@H](N)CS.Cl	124	–	–
CC(=O)CC(=O)OCCCl	–	198	–
[2H]C([2H])([2H])C([2H])([2H])C([2H])([2H])C([2H])([2H])C([2H])([2H])C([2H])([2H])C([2H])([2H])C([2H])([2H])C([2H])([2H])C([2H])([2H])C([2H])([2H])C([2H])([2H])C([2H])([2H])C([2H])([2H])C([2H])([2H])C([2H])([2H])[2H]	–	–	log10 biotransformation half-life (days): 1.47
FC(Br)Br	-78	64.9	–
Nc1nc(N)nc(N)n1	–	–	log10 vapour pressure (mmHg): -9.44; ready biodegradability: not readily biodegradable; log10 BCF: 0.58
CCCOC(N)=O	60	196	log10 vapour pressure (mmHg): -1.26
C=Cc1ccccn1	–	160	log10 vapour pressure (mmHg): 0.444; ready biodegradability: not readily biodegradable
CCCCCCCCCCCCCCCCCCCCCCCCCCC	59.5	442	log10 biodegradation half-life (days): 2.15; log10 vapour pressure (mmHg): -6.55
CC(C)=CCCC(C)O (stereo not given)	–	175	–
O=C1OCCO1	39.5	248	log10 vapour pressure (mmHg): -2.01; ready biodegradability: readily biodegradable
